From patent US20190315711A1 (eXIthera Pharmaceuticals, Inc., priority 2016, published 2019)
Values after ≈ are worked out from the molar mass of the structure shown.

Columns and labels:
[1] = Aqueous solubility in PBS pH 7.4; assay type: physicochemical; conditions: phosphate buffered saline, aqueous buffer, kinetic from dmso stock, PBS pH 7.4, room temperature
Description: The following procedure was used to determine the aqueous solubility of a test compound in phosphate buffered saline (PBS—NaCl 137 mM, KCl 2.7 mM, Na2HPO4 8.1 mM, KH2PO4 1.5 mM, pH 7.4) in 96-well plate format by HPLC-UV/VIS analysis. The test compound was prepared at 200 μM in PBS from a 10 mM DMSO stock solution. The final DMSO concentration was 2%. The PBS buffer samples were mixed thoroughly followed by incubation at room temperature for 24 h. At the end of the incubation, the PBS buffer samples were centrifuged and supernatants analyzed by HPLC. The aqueous solubility (μM) of the test compound in PBS was determined by comparing the peak area of the principal peak in the calibration standard (200 μM) with the peak area of the corresponding peak in each of the PBS samples. The range of the assay was approximately 0.5 μM to 200 μM. The reference compounds used in each assay were metoprolol, rifampicin, ketoconazole, phenytoin, haloperidol, simvastatin, diethylstilbestrol, and tamoxifen ranking from fully soluble (200 μM) to poorly soluble (<1 μM).

[2] = Caco-2 cell permeability assay (A-B and B-A); assay type: in vitro ADME; conditions: human; for Papp A→B at 60 min, 10 μM: A-B direction; for Papp B→A at 40 min, 10 μM: B-A direction
Description: The following procedure was used to determine the ability of a test compound to cross Caco-2 cells (human intestinal epithelial cells derived from a colorectal adenocarcinoma). The cells were seeded at 1×10^5 cells/cm^2 in 96-well Multiscreen™ plates (Millipore). Permeability assays were performed with the cells at days 21-25 post-seeding. Cells are typically used for 15 consecutive passages in culture.
This assay can be performed in either the apical to basolateral (A−B) or basolateral to apical (B−A) direction. The test compound was prepared at 10 μM in HBSS-MES (pH 6.5) or HBSS-HEPES (pH 7.4) with a final DMSO concentration of 1%. The working solution was then centrifuged and the supernatant added to the donor side. The assay plate was incubated at 37° C. with gentle shaking for 60 min or 40 min for the A−B or B−A assay, respectively. Samples were aliquoted from the donor side at time zero and the end point, and from the receiver side at the end point.
Reference compounds, propranolol (highly permeable), labetalol (moderately permeable), ranitidine (poorly permeable), and colchicine (P-glycoprotein substrate) were included in each assay.
Samples are analyzed by HPLC-MS/MS using selected reaction monitoring. The HPLC system consists of a binary LC pump with autosampler, a C-18 column, and a gradient.
The apparent permeability coefficient (Papp) of the test compound (Equation 2) and its recovery (Equation 3) are calculated as follows: […]
wherein A is the surface area of the cell monolayer (0.11 cm^2), C is concentration of the test compound expressed as peak area, D denotes donor, and R is receiver. “0”, “mid,” and “end” denote time at zero, mid-point, and end of the incubation, respectively. At is the incubation time. V is the volume of the donor or receiver.
This is most likely due to non-specific binding or degradation.

[3] = Plasma protein binding by equilibrium dialysis; assay type: in vitro ADME; conditions: both sexes, pooled plasma, pH 7.4, human plasma protein binding, read-out: PPB
Description: The following procedure was used to determine the plasma protein binding of a test compound in pooled plasma from human (mixed gender) via equilibrium dialysis in a 96-well plate format. The dialysate compartment was loaded with phosphate-buffered saline (pH 7.4) and the sample side was loaded with plasma spiked with the test compound at a concentration of 10 μM. After loading, samples were covered and incubated for 4 hours at 37° C. After incubation, each compartment was sampled, diluted with acetonitrile/buffer and centrifuged. The supernatants were analyzed by HPLC-MS/MS. The analyte peak areas obtained from HPLC-MS/MS analysis of each sample were used to calculate protein binding according to the following equation (Equation 4):
where: AREAp=Peak area of analyte in protein matrix; AREAb=Peak area of analyte in buffer. The amount measured in the plasma compartment included both free and bound drug, while that on the buffer side represented free drug only; the differences were used to calculate the percentage plasma protein bound. Three reference compounds were tested in each assay: acebutolol, quinidine and warfarin.

[4] = target: human Factor XIa (Homo sapiens, UniProt P03951); assay: Factor XIa enzyme inhibition assay (dose response, fluorogenic AMC substrate); assay type: biochemical; design: Enzyme: Factor XIa; conditions: purified enzyme; substrate 50 μM, enzyme 0.25 nM; read-out: hFXIa IC50
Chain of human Factor XIa (P03951 388-625 limits assumed): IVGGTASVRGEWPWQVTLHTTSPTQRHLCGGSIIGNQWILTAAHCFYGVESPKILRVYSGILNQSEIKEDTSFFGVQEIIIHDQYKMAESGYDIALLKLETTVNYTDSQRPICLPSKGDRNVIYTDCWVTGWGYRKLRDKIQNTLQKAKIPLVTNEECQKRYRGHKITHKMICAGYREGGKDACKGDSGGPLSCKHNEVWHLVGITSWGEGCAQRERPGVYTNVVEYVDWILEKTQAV
Chain of human Factor XIa (P03951 19-387 partner limits assumed): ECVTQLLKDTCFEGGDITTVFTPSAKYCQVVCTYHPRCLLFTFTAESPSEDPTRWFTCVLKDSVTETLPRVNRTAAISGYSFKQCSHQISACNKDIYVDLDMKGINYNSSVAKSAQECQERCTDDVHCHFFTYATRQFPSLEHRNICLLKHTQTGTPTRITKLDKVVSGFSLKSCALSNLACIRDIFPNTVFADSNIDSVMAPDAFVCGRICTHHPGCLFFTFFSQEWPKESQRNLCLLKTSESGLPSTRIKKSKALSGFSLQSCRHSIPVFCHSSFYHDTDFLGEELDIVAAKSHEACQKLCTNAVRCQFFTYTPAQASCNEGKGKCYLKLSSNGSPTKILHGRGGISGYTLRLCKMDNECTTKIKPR
Method in brief: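 Fluorogenic assay in 20 mM Hepes pH 7.4, 150 mM NaCl, 0.02% Tween 20 with 0.25 nM enzyme and 50 μM Glp-Pro-Arg-AMC (final). Fluorescence read every minute for 30 min at 30 °C after serial two-fold compound dilution; IC50 from four-parameter Hill fit of dose-response curves.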

[5] = target: T1, Factor Xa (Homo sapiens, UniProt P00742); assay: Dose response assay for protease inhibitors: Factor Xa; assay type: biochemical; conditions: ratio versus Factor XIa
T1 construct: Factor Xa; 0.2 μM in 50% glycerol (9.2 μg/mL)
T1 sequence (P00742 235-488 limits assumed): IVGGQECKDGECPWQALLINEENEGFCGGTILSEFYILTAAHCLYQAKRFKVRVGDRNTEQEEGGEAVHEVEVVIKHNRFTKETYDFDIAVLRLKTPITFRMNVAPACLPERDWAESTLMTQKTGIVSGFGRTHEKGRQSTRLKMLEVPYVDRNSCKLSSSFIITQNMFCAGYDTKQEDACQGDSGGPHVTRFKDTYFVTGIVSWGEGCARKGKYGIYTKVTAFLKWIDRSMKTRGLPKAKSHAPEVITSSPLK
T1 sequence (P00742 41-179 partner limits assumed): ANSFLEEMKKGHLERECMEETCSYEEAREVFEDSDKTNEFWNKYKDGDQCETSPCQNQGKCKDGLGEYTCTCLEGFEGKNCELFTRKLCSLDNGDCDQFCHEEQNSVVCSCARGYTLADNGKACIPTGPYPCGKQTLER
Description: (§1) • Assay buffer: 20 mM Hepes, pH 7.4; 150 mM NaCl; 0.02% Tween 20 • Compounds: 10 mM stocks in DMSO • Substrate: 20 mM Glp-Pro-Arg-AMC, 25 mg/2.3 mL H2O (store at +4° C.) [Factor XIa, thrombin, and trypsin] • 20 mM Pro-Phe-Arg-AMC (Bachem I-1295), 25 mg/2.2 mL H2O or Boc-Leu-Gly-Arg-AMC (Bachem I-1105), 25 mg/2.07 mL H2O (store at +4° C.) [Factor Xa] • Enzyme: Factor XIa; 0.25 M in 50% glycerol (20 μg/mL) • Trypsin; 0.2 μM in 50% glycerol (4.8 μg/mL) • Thrombin; 0.2 μM in 50% glycerol (7.34 μg/mL) • Factor Xa; 0.2 μM in 50% glycerol (9.2 μg/mL)
(§2) • 1. Dilute the substrate to 100 μM in assay buffer (30 μL/6 mL). The enzyme is diluted to 0.5 nM just prior to use (12 L/6 mL for Factor XIa; 15 μL/6 mL for all of the rest.) • 2. Pipette 50 μL of substrate into each well of the 96 well (12×8) microtiter plate. (Column 1 is used as the 100% activity control and receives no compound, and Column 12 is the blank and receives no enzyme.) Add an additional 46 μL to column 2. • 3. Pipette 4 μL of each compound into the appropriate well in column 2 of the plate (unknowns assayed in triplicate, standard assayed in duplicate). The final compound concentration will be 1/50th of the stock. • 4. Serially two-fold dilute the compound by mixing the sample in column 2, removing 50 μL to the next well (column 3), mix and remove to column 4, etc. until column 11. After mixing column 11, remove 50 μL and discard. • 5. Pipette 50 μL of buffer into column 12. Initiate the reaction by adding 50 μL of enzyme solution to each well of columns 1-11 as rapidly as possible. • 6. Read the plate in a spectrophotometer (SpectraMax) at 30° C., wherein each well is measured every 60 s for 30 min. For Factor Xa assays, each well is measured every 1 min for a total of 60 min. • 7. For Factor XIa assays, the compounds are assayed, in duplicate, at 3 different starting concentrations, 20, 2, and 0.2 μM; 1:10, 1:100, and 1:1000 dilution of 10 mM stock or at 2, 0.2, and 0.02 μM; 1:100, 1:1000, and 1:10,000 dilution of 10 mM stock. Data for each concentration are combined for graphing and data fitting. • 8. Data can be used both for estimation of IC50 and for estimation of Kon.

[6] = target: T2, Trypsin (Bos taurus, UniProt P00760); assay: Dose response assay for protease inhibitors: trypsin; assay type: biochemical; conditions: ratio versus Factor XIa
T2 construct: gene PRSS1
T2 sequence (P00760 24-246): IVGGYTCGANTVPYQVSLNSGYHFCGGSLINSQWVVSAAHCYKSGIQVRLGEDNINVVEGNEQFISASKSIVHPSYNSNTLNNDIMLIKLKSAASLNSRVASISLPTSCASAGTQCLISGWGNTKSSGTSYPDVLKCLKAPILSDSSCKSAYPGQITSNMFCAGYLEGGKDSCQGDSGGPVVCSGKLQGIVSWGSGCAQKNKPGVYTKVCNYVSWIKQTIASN
Description: as §1, §2

[7] = target: T3, Thrombin (Homo sapiens, UniProt P00734); assay: Dose response assay for protease inhibitors: thrombin; assay type: biochemical; conditions: ratio versus Factor XIa
T3 construct: Thrombin; 0.2 μM in 50% glycerol (7.34 μg/mL)
Description: as §1, §2

CN(C(=O)[C@@H]1[C@@H](Cc2ccnc(N)c2)C(=O)N1C(=O)N[C@@H](C1CCCCC1)C(F)(F)F)c1cc(Cl)cc(Cl)c1 [Compound 23]
solubility at 24 h [1]: ≤ 10 µM
Papp A→B at 60 min, 10 μM [2]: ≤ 10 ×10⁻⁶ cm/s
Papp B→A at 40 min, 10 μM [2]: ≤ 10 ×10⁻⁶ cm/s
fraction unbound at 4 h, 10 μM [3]: < 0.05
IC50 [4]: 0.01 to 0.1 µM

CC[C@@H](NC(=O)N1C(=O)[C@H](Cc2ccnc(N)c2)[C@H]1C(=O)N(C)c1cccc(OC)c1)C1CCCCC1 [Compound 28]
FXa/FXIa (selectivity ratio) [5]: H (“H” indicates 101-1000)
Papp A→B at 60 min, 10 μM [2]: 11 to 30 ×10⁻⁶ cm/s
Papp B→A at 40 min, 10 μM [2]: ≤ 10 ×10⁻⁶ cm/s
Ratio: Trypsin/FXIa [6]: G (“G” indicates 1-100)
Ratio: Thrombin/FXIa [7]: G (“G” indicates 1-100)
IC50 [4]: < 0.01 µM

CC[C@@H](NC(=O)N1C(=O)[C@H](Cc2ccnc(N)c2)[C@H]1C(=O)N(CC)c1cccc(Cl)c1)C1CCCCC1 [Compound 32]
FXa/FXIa (selectivity ratio) [5]: H (“H” indicates 101-1000)
Papp A→B at 60 min, 10 μM [2]: ≤ 10 ×10⁻⁶ cm/s
Papp B→A at 40 min, 10 μM [2]: ≤ 10 ×10⁻⁶ cm/s
Ratio: Trypsin/FXIa [6]: G (“G” indicates 1-100)
Ratio: Thrombin/FXIa [7]: G (“G” indicates 1-100)
IC50 [4]: < 0.01 µM

CC[C@@H](NC(=O)N1C(=O)[C@H](Cc2ccnc(N)c2)[C@H]1C(=O)N(C)c1ncccn1)C1CCCCC1 [Compound 37]
FXa/FXIa (selectivity ratio) [5]: I (“I” indicates >500)
Papp A→B at 60 min, 10 μM [2]: 11 to 30 ×10⁻⁶ cm/s
Papp B→A at 40 min, 10 μM [2]: 11 to 30 ×10⁻⁶ cm/s
Ratio: Trypsin/FXIa [6]: G (“G” indicates 1-100)
Ratio: Thrombin/FXIa [7]: I (“I” indicates >500)
IC50 [4]: < 0.01 µM

CC[C@H](c1cccc(Cl)c1)N(C)C(=O)N1C(=O)[C@H](Cc2ccnc(N)c2)[C@H]1C(=O)N(C)c1ccncc1 [Compound 113]
FXa/FXIa (selectivity ratio) [5]: I (“I” indicates >500)
Papp A→B at 60 min, 10 μM [2]: ≤ 10 ×10⁻⁶ cm/s
Papp B→A at 40 min, 10 μM [2]: 11 to 30 ×10⁻⁶ cm/s
Ratio: Trypsin/FXIa [6]: G (“G” indicates 1-100)
Ratio: Thrombin/FXIa [7]: H (“H” indicates 101-1000)
IC50 [4]: < 0.01 µM

CC[C@@H](NC(=O)N1C(=O)[C@H](Cc2ccnc(N)c2)[C@H]1C(=O)N(C)c1ccccc1)c1cccc(Cl)c1 [Compound 115]
FXa/FXIa (selectivity ratio) [5]: H (“H” indicates 101-1000)
Papp A→B at 60 min, 10 μM [2]: 11 to 30 ×10⁻⁶ cm/s
Papp B→A at 40 min, 10 μM [2]: ≤ 10 ×10⁻⁶ cm/s
Ratio: Trypsin/FXIa [6]: G (“G” indicates 1-100)
Ratio: Thrombin/FXIa [7]: H (“H” indicates 101-1000)
IC50 [4]: < 0.01 µM

CC[C@@H](NC(=O)N1C(=O)[C@H](Cc2ccnc(N)c2)[C@H]1C(=O)N(C)c1ccnc(C)c1)c1cccc(Cl)c1 [Compound 124]
FXa/FXIa (selectivity ratio) [5]: H (“H” indicates 101-1000)
Ratio: Trypsin/FXIa [6]: G (“G” indicates 1-100)
Ratio: Thrombin/FXIa [7]: G (“G” indicates 1-100)
IC50 [4]: < 0.01 µM

CC[C@@H](NC(=O)N1C(=O)[C@H](Cc2cc(C)nc(N)c2)[C@H]1C(=O)N(C)c1ncccn1)c1cccc(Cl)c1 [Compound 135]
FXa/FXIa (selectivity ratio) [5]: I (“I” indicates >500)
Ratio: Trypsin/FXIa [6]: G (“G” indicates 1-100)
Ratio: Thrombin/FXIa [7]: H (“H” indicates 101-1000)
IC50 [4]: < 0.01 µM

CN(C(=O)[C@@H]1[C@@H](Cc2ccnc(N)c2)C(=O)N1C(=O)N[C@@H](C1CCCCC1)C(F)(F)F)c1cccc(Cl)c1 [Example 11]
solubility at 24 h [1]: 10 to 100 µM (≈ 5.52 to 55.2 µg/mL)
Papp A→B at 60 min, 10 μM [2]: ≤ 10 ×10⁻⁶ cm/s
Papp B→A at 40 min, 10 μM [2]: ≤ 10 ×10⁻⁶ cm/s
fraction unbound at 4 h, 10 μM [3]: < 0.05
